Measurements published in ChEMBL document CHEMBL1201862, “PubChem BioAssay data set” (2004).
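Cultured in 96-well plates, cells were exposed to test compound for 48 hours across five concentrations. GI50: concentration for 50% inhibition of growth.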 Calls of active or inactive are those of the source. Rule as the data show it: active = GI50 up to about 1.1 µM and inactive = higher.

Key:
Experiment in all cases: NCI-60 cell line screen, 48 h
M14 = system: M14
HOP-62 = system: HOP-62
U-251 = system: U-251
CCRF-CEM = system: CCRF-CEM
NCI-H226 = system: NCI-H226
DU-145 = system: DU-145
RPMI-8226 = system: RPMI-8226
SR = system: SR
OVCAR-5 = system: OVCAR-5
IGROV-1 = system: IGROV-1
SK-MEL-2 = system: SK-MEL-2
OVCAR-4 = system: OVCAR-4
K562 = system: K562
HCC 2998 = system: HCC 2998
COLO 205 = system: COLO 205
NCI/ADR-RES = system: NCI/ADR-RES
OVCAR-3 = system: OVCAR-3
SF-539 = system: SF-539
SN12C = system: SN12C

O=C(O)CCC(NC(=O)c1ccc(Oc2nc3ccccc3nc2C(=O)O)cc1)C(=O)O (stereo not given)
GI50 (M14): > 100 µM (inactive) | GI50 (HOP-62): > 100 µM (inactive) | GI50 (U-251): > 100 µM (inactive) | GI50 (CCRF-CEM): > 100 µM (inactive) | GI50 (NCI-H226): > 100 µM (inactive) | GI50 (DU-145): > 100 µM (inactive) | GI50 (RPMI-8226): > 100 µM (inactive) | GI50 (SR): > 100 µM (inactive) | GI50 (OVCAR-5): > 100 µM (inactive) | GI50 (IGROV-1): > 100 µM (inactive) | GI50 (SK-MEL-2): > 100 µM (inactive) | GI50 (OVCAR-4): > 100 µM (inactive) | GI50 (K562): > 100 µM (inactive) | GI50 (HCC 2998): > 100 µM (inactive) | GI50 (COLO 205): > 100 µM (inactive) | GI50 (NCI/ADR-RES): > 100 µM (inactive) | GI50 (OVCAR-3): > 100 µM (inactive)

Cc1ccc(NC(=O)CC(=O)N2N=C(N(c3ccccc3)c3ccccc3)CC2c2ccccc2)cc1 (stereo not given)
GI50 (M14): > 100 µM (inactive) | GI50 (HOP-62): > 100 µM (inactive) | GI50 (U-251): > 100 µM (inactive) | GI50 (CCRF-CEM): > 100 µM (inactive) | GI50 (SF-539): > 100 µM (inactive) | GI50 (NCI-H226): > 100 µM (inactive) | GI50 (DU-145): > 100 µM (inactive) | GI50 (RPMI-8226): > 100 µM (inactive) | GI50 (OVCAR-5): > 100 µM (inactive) | GI50 (IGROV-1): > 100 µM (inactive) | GI50 (SK-MEL-2): > 100 µM (inactive) | GI50 (OVCAR-4): > 100 µM (inactive) | GI50 (K562): > 100 µM (inactive) | GI50 (HCC 2998): > 100 µM (inactive) | GI50 (COLO 205): > 100 µM (inactive) | GI50 (NCI/ADR-RES): > 100 µM (inactive) | GI50 (OVCAR-3): > 100 µM (inactive)

N#Cc1c(-c2ccc([N+](=O)[O-])cc2)c(C#N)c(=O)n(NS(=O)(=O)c2ccccc2)c1-c1ccccc1
GI50 (M14): > 100 µM (inactive) | GI50 (HOP-62): > 100 µM (inactive) | GI50 (U-251): > 100 µM (inactive) | GI50 (CCRF-CEM): > 100 µM (inactive) | GI50 (SF-539): > 100 µM (inactive) | GI50 (NCI-H226): > 100 µM (inactive) | GI50 (RPMI-8226): > 100 µM (inactive) | GI50 (OVCAR-5): > 100 µM (inactive) | GI50 (IGROV-1): > 100 µM (inactive) | GI50 (SN12C): > 100 µM (inactive) | GI50 (SK-MEL-2): > 100 µM (inactive) | GI50 (OVCAR-4): > 100 µM (inactive) | GI50 (K562): > 100 µM (inactive) | GI50 (HCC 2998): > 100 µM (inactive) | GI50 (COLO 205): > 100 µM (inactive) | GI50 (NCI/ADR-RES): > 100 µM (inactive)

C[n+]1c2ccccc2cc2c(CNC(CCCNC(=N)N)C(=O)O)cccc21 (stereo not given)
GI50 (M14): 3.31 µM (inactive) | GI50 (HOP-62): 2.7 µM (inactive) | GI50 (U-251): 1.61 µM (inactive) | GI50 (CCRF-CEM): 0.179 µM (active) | GI50 (SF-539): 1.23 µM (inactive) | GI50 (NCI-H226): 3.05 µM (inactive) | GI50 (RPMI-8226): 0.0682 µM (active) | GI50 (SR): 0.184 µM (active) | GI50 (OVCAR-5): 4.5 µM (inactive) | GI50 (IGROV-1): 7.4 µM (inactive) | GI50 (SN12C): 0.65 µM (active) | GI50 (SK-MEL-2): 4.03 µM (inactive) | GI50 (OVCAR-4): 11.4 µM (inactive) | GI50 (K562): 0.22 µM (active) | GI50 (HCC 2998): 2.24 µM (inactive) | GI50 (COLO 205): 0.248 µM (active) | GI50 (OVCAR-3): 2 µM (inactive)

CSc1nc(O)c2cn(Cc3ccccc3)nc2n1
GI50 (M14): > 91.6 µM (inactive) | GI50 (HOP-62): > 100 µM (inactive) | GI50 (U-251): > 100 µM (inactive) | GI50 (CCRF-CEM): 44 µM (inactive) | GI50 (SF-539): > 100 µM (inactive) | GI50 (NCI-H226): > 100 µM (inactive) | GI50 (RPMI-8226): > 100 µM (inactive) | GI50 (SR): > 100 µM (inactive) | GI50 (OVCAR-5): > 100 µM (inactive) | GI50 (IGROV-1): > 100 µM (inactive) | GI50 (SN12C): > 100 µM (inactive) | GI50 (SK-MEL-2): > 100 µM (inactive) | GI50 (OVCAR-4): > 100 µM (inactive) | GI50 (K562): 77.8 µM (inactive) | GI50 (HCC 2998): > 100 µM (inactive) | GI50 (COLO 205): > 100 µM (inactive) | GI50 (OVCAR-3): > 100 µM (inactive)

COc1ccc(/C=N/Nc2nc(=S)[nH]c3[nH]ncc23)cc1
GI50 (M14): 41.8 µM (inactive) | GI50 (HOP-62): 29.9 µM (inactive) | GI50 (U-251): 19.1 µM (inactive) | GI50 (CCRF-CEM): 24.7 µM (inactive) | GI50 (SF-539): > 100 µM (inactive) | GI50 (NCI-H226): > 100 µM (inactive) | GI50 (DU-145): 36.5 µM (inactive) | GI50 (RPMI-8226): 2.5 µM (inactive) | GI50 (SR): > 100 µM (inactive) | GI50 (OVCAR-5): 45.5 µM (inactive) | GI50 (IGROV-1): 25 µM (inactive) | GI50 (SN12C): > 100 µM (inactive) | GI50 (SK-MEL-2): 45.7 µM (inactive) | GI50 (OVCAR-4): 49 µM (inactive) | GI50 (K562): > 100 µM (inactive) | GI50 (HCC 2998): 35 µM (inactive) | GI50 (COLO 205): 18.3 µM (inactive) | GI50 (NCI/ADR-RES): > 100 µM (inactive) | GI50 (OVCAR-3): 60.7 µM (inactive)

C=C1CC[C@@H]2C13[C@@H]1[C@H](CC(=O)[C@@]23C)C1(C)C (stereo not given in full)
GI50 (M14): > 100 µM (inactive) | GI50 (HOP-62): 24 µM (inactive) | GI50 (U-251): > 100 µM (inactive) | GI50 (SF-539): 67.1 µM (inactive) | GI50 (NCI-H226): > 100 µM (inactive) | GI50 (DU-145): > 100 µM (inactive) | GI50 (RPMI-8226): > 100 µM (inactive) | GI50 (SR): 11.7 µM (inactive) | GI50 (OVCAR-5): > 100 µM (inactive) | GI50 (IGROV-1): 55.7 µM (inactive) | GI50 (SN12C): > 100 µM (inactive) | GI50 (SK-MEL-2): > 100 µM (inactive) | GI50 (OVCAR-4): 15.5 µM (inactive) | GI50 (K562): 81.5 µM (inactive) | GI50 (COLO 205): 84.5 µM (inactive) | GI50 (NCI/ADR-RES): > 100 µM (inactive) | GI50 (OVCAR-3): 21.6 µM (inactive)

OC(CCl)CN1CC[N+]2(CC1)CC[N+]1(CCN(CC(O)CCl)CC1)CC2 (stereo not given) [PROSPIDIUM CHLORIDE]
GI50 (M14): > 50 µM (inactive) | GI50 (U-251): > 50 µM (inactive) | GI50 (CCRF-CEM): > 50 µM (inactive) | GI50 (SF-539): > 50 µM (inactive) | GI50 (NCI-H226): > 50 µM (inactive) | GI50 (RPMI-8226): > 50 µM (inactive) | GI50 (SR): > 50 µM (inactive) | GI50 (IGROV-1): > 50 µM (inactive) | GI50 (SN12C): > 50 µM (inactive) | GI50 (SK-MEL-2): > 50 µM (inactive) | GI50 (OVCAR-4): > 50 µM (inactive) | GI50 (K562): > 50 µM (inactive) | GI50 (HCC 2998): > 50 µM (inactive) | GI50 (COLO 205): > 50 µM (inactive) | GI50 (OVCAR-3): > 50 µM (inactive)
